Here are results for four compounds from article PMC10983001, “Development of Cytotoxic GW7604-Zeise’s Salt Conjugates as Multitarget Compounds with Selectivity for Estrogen Receptor- Positive Tumor Cells” (Journal of Medicinal Chemistry, 2024).

Like-named read-outs stand apart in the source and are kept apart here.

One experiment deals with MCF-7 cells. As to the kind of experiment: MTT assay of metabolic activity, MCF-7. As to conditions: Homo sapiens. Format: cell-based, human. As for the experimental part: The GW7604-Alk-PtCl3 complexes (with exclusion of GW7604-Prop-PtCl3) were investigated for cytotoxic effects in SKBr3 (ER-negative, COX-2-positive, Figure 6), MCF-7 (ERα-positive, COX-negative, Figure 6), and noncancerous TSA-201 (human embryonal kidney) cells at concentrations of 10–30 μM using an established MTT (3-(4,5-dimethylthiazol-2-yl)-2,5-diphenyltetrazolium bromide) assay.[60],[69]
After incubation for 72 h, the amounts of surviving, metabolically active cells were quantified based on their ability to transform the water-soluble yellow dye MTT to a purple formazan, which can be analyzed by UV–vis spectroscopy.
The exponentially growing cells were seeded at a density of 1750 (MCF-7), 2000 (SKBr3), and 1250 (TSA-201) cells/well into clear flat-bottom 96-well plates in triplicate. Following 24 h of incubation at 37 °C in a humidified atmosphere (5% CO2/95% air), the compounds [freshly prepared stock solutions in DMF, diluted with DMEM to the desired concentration (final DMF concentration of 0.1% (v/v))] were added to reach the indicated concentrations. After another 72 h of incubation, the cellular metabolic activity was measured employing an MTT assay. By adding predissolved MTT reagent in PBS at a final concentration of 0.5 mg/mL, the metabolic activity can be determined via an enzymatic conversion to a purple formazan salt. After 3 h, the medium was aspirated, and 200 μL of DMSO was added to dissolve the formed formazan crystals. The absorbance was measured at 570 and 690 nm (turbidity assessment) using an EnSpire plate reader (PerkinElmer, Waltham, MA, USA). Solvent-treated cells without a compound served as the positive control. Metabolic activity was calculated by the following equation [drawing 1]

Experiment [1] deals with T1, ERβ ligand-binding domain (Homo sapiens, UniProt Q92731).
T1 construct: purchased Invitrogen
T1 sequence (Q92731 264-498 limits assumed): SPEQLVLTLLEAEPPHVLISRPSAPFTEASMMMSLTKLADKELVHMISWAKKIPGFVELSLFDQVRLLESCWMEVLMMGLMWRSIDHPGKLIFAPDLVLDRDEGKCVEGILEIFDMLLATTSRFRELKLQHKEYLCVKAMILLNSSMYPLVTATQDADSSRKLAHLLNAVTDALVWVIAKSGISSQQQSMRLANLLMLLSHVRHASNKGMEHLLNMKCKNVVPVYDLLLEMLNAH
The experiment can be described thus: TR-FRET ligand binding assay, isolated LBD of ERβ. As for the experimental part: (§1) A modified LanthaScreen TR-FRET alpha/beta assay was performed, according to the manufacturer’s protocol (Invitrogen, Carlsbad, […]), to determine the binding affinity to the isolated LBD. […] Measurements were carried out on a multimode plate reader, Tecan Spark (Tecan, Männedorf, Switzerland). Calculations and visualization were performed with GraphPad Prism 8.0 (GraphPad Software, San Diego, CA, USA).
(In TR-FRET formats the signal depends on donor and acceptor labels being close together.)

The target in experiment [2] is T2, ERα ligand-binding domain (Homo sapiens, UniProt P03372).
T2 construct: purchased Invitrogen
T2 sequence (P03372 311-547 limits assumed): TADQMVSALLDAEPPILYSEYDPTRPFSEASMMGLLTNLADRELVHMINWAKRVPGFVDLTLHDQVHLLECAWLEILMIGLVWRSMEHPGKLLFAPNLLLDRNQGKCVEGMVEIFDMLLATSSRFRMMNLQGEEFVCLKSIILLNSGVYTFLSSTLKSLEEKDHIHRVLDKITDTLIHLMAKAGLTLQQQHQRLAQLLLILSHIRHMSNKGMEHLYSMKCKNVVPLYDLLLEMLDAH
As to the kind of experiment: TR-FRET ligand binding assay, isolated LBD of ERα. Here is the method:
as §1

[3] abbreviates: MCF7, 72 h, MTT, read-out: IC50 MCF-7.

Usually IC50 stands for the concentration that gives 50% inhibition. As for `CCC(=C(c1ccc(O)cc1)c1ccc(C=CC(=O)O)cc1)c1ccccc1` (mixture of isomers) [GW7604, (E)-3-(4-((E/Z)-1-(4-hydroxyphenyl)-2-phenylbut-1-en-1-yl)phenyl)acrylic acid], the IC50 with MCF-7 cells (MCF7, read-out: IC50, reduction of growth of MCF-7 cells) was 171 nM.
With `C=CCCOC(=O)/C=C/c1ccc(C(=C(CC)c2ccccc2)c2ccc(O)cc2)cc1` (mixture of isomers) [GW7604-But, But-3-en-1-yl (E)-3-(4-((E/Z)-1-(4-hydroxyphenyl)-2-phenylbut-1-en-1-yl)phenyl) Acrylate], the IC50 in the experiment with MCF-7 cells (setting [3]) is over 30000 nM.
On the same count and under the same terms, to `C=CCCCCOC(=O)/C=C/c1ccc(C(=C(CC)c2ccccc2)c2ccc(O)cc2)cc1` (mixture of isomers) [GW7604-Hex, Hex-5-en-1-yl (E)-3-(4-((E/Z)-1-(4-hydroxyphenyl)-2-phenylbut-1-en-1-yl)phenyl) Acrylate] belongs over 30000 nM.
Turning to `C=CCCCOC(=O)/C=C/c1ccc(C(=C(CC)c2ccccc2)c2ccc(O)cc2)cc1` (mixture of isomers) [GW7604-Pent, Pent-4-en-1-yl (E)-3-(4-((E/Z)-1-(4-hydroxyphenyl)-2-phenylbut-1-en-1-yl)phenyl) Acrylate], in experiment [1] (RBA(E2) = 100%), the “RBA (ERβ)” value is reported as 0.23%. Also, the IC50 in experiment [1] (read-out: IC50 (ERβ), displacement from the LBS) is 105 nM; in the experiment with MCF-7 cells (setting [3]), over 30000 nM; in experiment [2] (read-out: IC50 (ERα), displacement from the LBS), 39.1 nM. Besides, in experiment [2] (RBA(E2) = 100%), the “RBA (ERα)” value was determined as 0.90%.
